Results reported in patent US20230014445A1, “ALLOSTERIC CHROMENONE INHIBITORS OF PHOSPHOINOSITIDE 3-KINASE (PI3K) FOR THE TREATMENT OF DISEASE” (Petra Pharma Corporation, priority 2021, published 2023).

Legend:
[1] = biological target: T1, human full length PIK3KA Wild-type (p110α/p85α complex) (Homo sapiens, UniProt P42336); assay: PI3K-Alpha Kinase (PIK3CA) biochemical activity, wild-type (ADP-Glo); conditions: 20 uM ATP
T1 construct: Recombinant, catalytically active human full length PIK3KA Wild-type and H1047R mutant were purchased; 6xHis (N); purchased EMD Millipore Sigma 14-602M
Source text: (§1) PI3K-Alpha Kinase (PIK3CA) Activity, Wild-Type and H1047R Mutant and Determining IC50 Values for Inhibitors
(§2) Recombinant, catalytically active human full length PIK3KA Wild-type and H1047R mutant were purchased as 1:1 complex of N-terminal 6×his tagged p110α (catalytic) and untagged p85α, (regulatory subunit) from EMD Millipore Sigma (cat. no. 14-602M and 14-792M, respectively). PIP2diC8 (Avanti Polar Lipids Inc., cat. no. 850185) or Soy PI (Avanti Polar Lipids Inc., cat. No. 840044P) was used as lipid substrate. PIP2diC8 or PI lyophilized powder was dissolved in milliQ water to a concentration of 1 mM just before use. 10 mM stock compounds in DMSO were serially diluted 1:3 to generate a 10-point curve and plated using an acoustic liquid handler system (Echo 550 series instrument, Labcyte). A 10× intermediate compound plate (200 uM starting compound concentration and 10% DMSO) was prepared before starting the reaction. A typical reaction mixture (50 uL) comprised 40 mM HEPES buffer, pH 7.4, 25 mM MgCl2, 0.01% v/v triton-X-100, 1% v/v DMSO, 20 mM NaCl, 1-5 nM WT or H1047R PI3K protein, 20 uM ATP, and 50 uM PIP2diC8 or Soy PI. 1% DMSO buffer alone without test compound was employed as MAX control (full activity in the absence of any inhibitor), and no enzyme control was used to determine the level of background Adenosine 5′-diphosphate (ADP) (MIN control). First, Wild-type (WT) and H1047R mutant protein in kinase buffer with all components except ATP were incubated with or without compound at 27° C. for 1 h. After the pre-incubation, the reaction was initiated by the addition of […] (20 uM final concentration). The reaction was allowed to proceed until about 10% conversion of ATP (2 uM ADP) at 27° C. After that time, 5 uL of reaction was mixed with 5 uL of ADP-Kinase Glo Reagent (ADP-Glo Kinase assay kit, Promega cat. no. V9102) supplemented with MgCl2 10 mM to stop the reaction and deplete the remaining ATP for 40 min at room temperature. Then, 10 uL of Kinase Detection Reagent (ADP-Glo Kinase assay kit, Promega cat. no. V9102) was added to simultaneously convert ADP to ATP and allow the newly synthesized ATP to be measured using a luciferase/luciferin reaction. After 30 min at room temperature the light generated was measured using a luminometer (EnVision plate reader, Perkin Elmer). Process data through Genedata-Screener tool. Relative IC50 values are determined using luminescence units by calculating percent inhibition with respect to on-plate “MIN” and “MAX” controls. Data was analyzed using a 4-parameter nonlinear logistic equation (four-parameter logistic concentration-response curve):
(§3) Y=bot+[(top−bot)/1+(x/IC50)slope]
(§4) where Y=% inhibition, X=concentration yielding y % inhibition, Bottom=minimum value of y attained by curve, Top=maximum value of y attained by curve and Slope=steepness of curve at IC50.
(§5) % Inh=[(median Max−x/median Max−median Min)]·100
(§6) IC50: concentration of compound that reduces a given response (ligand binding, enzyme response) by 50%. IC50 relative: concentration giving half the compound's maximum response.
(§7) For IC50 values shown in Table A, “A” means IC50<0.5 μM; “B” means IC50 ranging between 0.5 μM and 1.0 μM; “C” means IC50 ranging between 1 μM and 5 μM; “D” means IC50 ranging between 5 μM and 10 μM; “E” means IC50>10 μM.

[2] = biological target: T2, human full length PIK3KA H1047R mutant (p110α/p85α complex) (Homo sapiens, UniProt P42336, H1047R); assay: PI3K-Alpha Kinase (PIK3CA) biochemical activity, H1047R mutant (ADP-Glo); conditions: 20 uM ATP
T2 construct: Recombinant, catalytically active human full length PIK3KA Wild-type and H1047R mutant were purchased; 6xHis (N); purchased EMD Millipore Sigma 14-792M
T2 sequence (P42336 whole entry H1047R): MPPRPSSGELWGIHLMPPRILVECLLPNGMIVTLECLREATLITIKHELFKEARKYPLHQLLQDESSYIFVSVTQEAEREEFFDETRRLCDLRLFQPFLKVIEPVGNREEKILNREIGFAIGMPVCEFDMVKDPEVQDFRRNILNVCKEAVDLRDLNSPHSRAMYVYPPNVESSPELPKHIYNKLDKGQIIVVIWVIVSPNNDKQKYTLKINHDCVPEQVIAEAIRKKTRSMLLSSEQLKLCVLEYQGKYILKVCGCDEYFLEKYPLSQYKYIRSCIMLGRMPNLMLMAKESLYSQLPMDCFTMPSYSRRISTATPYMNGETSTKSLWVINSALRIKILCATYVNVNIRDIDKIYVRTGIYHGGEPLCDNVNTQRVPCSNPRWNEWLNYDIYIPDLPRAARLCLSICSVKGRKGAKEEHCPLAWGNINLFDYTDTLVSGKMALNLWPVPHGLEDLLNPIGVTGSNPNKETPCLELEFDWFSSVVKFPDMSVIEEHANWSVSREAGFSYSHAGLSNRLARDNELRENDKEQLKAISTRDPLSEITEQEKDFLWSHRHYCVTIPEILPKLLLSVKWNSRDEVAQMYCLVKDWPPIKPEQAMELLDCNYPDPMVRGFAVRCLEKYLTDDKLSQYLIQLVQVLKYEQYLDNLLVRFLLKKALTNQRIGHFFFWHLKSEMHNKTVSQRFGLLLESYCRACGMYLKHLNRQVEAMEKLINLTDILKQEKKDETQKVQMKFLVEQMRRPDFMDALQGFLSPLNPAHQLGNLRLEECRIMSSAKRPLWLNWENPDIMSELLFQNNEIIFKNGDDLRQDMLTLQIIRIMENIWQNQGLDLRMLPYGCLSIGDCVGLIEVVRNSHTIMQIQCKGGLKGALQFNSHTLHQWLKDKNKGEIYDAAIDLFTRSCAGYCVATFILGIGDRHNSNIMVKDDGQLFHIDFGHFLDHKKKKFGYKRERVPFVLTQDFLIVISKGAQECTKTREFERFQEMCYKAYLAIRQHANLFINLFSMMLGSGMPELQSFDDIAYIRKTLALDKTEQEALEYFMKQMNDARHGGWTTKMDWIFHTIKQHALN
T2 sequence (P27986 whole entry partner): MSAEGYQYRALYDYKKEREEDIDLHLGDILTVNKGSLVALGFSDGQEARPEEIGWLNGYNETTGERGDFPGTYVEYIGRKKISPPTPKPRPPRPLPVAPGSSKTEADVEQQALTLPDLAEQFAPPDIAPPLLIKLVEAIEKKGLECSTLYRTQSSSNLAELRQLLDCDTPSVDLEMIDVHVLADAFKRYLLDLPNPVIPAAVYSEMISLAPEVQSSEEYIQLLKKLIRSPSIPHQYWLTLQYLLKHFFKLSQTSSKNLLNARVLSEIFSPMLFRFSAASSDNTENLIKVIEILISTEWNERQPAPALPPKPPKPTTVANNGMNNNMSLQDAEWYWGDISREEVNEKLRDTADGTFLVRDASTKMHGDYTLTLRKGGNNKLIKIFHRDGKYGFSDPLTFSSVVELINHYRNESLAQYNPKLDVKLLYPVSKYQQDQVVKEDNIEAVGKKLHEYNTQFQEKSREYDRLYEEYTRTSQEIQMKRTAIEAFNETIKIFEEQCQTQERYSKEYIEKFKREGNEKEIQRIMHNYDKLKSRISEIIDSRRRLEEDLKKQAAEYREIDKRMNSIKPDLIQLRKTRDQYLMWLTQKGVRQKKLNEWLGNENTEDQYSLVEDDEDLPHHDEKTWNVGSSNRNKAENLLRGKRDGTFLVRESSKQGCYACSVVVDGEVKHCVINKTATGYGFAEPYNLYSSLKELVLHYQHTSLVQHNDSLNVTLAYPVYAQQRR
Source text: as §1, §2, §3, §4, §5, §6, §7

SMILES	IC50 ([1]; PIP2diC8 lipid substrate) [nM]	IC50 ([2]; PIP2diC8 lipid substrate) [nM]	IC50 ([1]; Soy PI lipid substrate) [nM]	IC50 ([2]; Soy PI lipid substrate) [nM]
COc1ncc(-c2cc(=O)c3cc(C)cc(C(C)Nc4ccccc4C(=O)O)c3o2)cn1 (single isomer, unassigned) [Example 4, 2-[1-[2-(2-Methoxypyrimidin-5-yl)-6-methyl-4-oxo-chromen-8-yl]ethylamino]benzoic acid]	< 500	< 500	–	–
Cc1cc(C(C)Nc2ccccc2C(=O)O)c2oc(-n3nccn3)cc(=O)c2c1 (single isomer, unassigned) [Example 57, 2-[1-[6-Methyl-4-oxo-2-(triazol-2-yl)chromen-8-yl]ethylamino]benzoic acid, Isomer 2,2,2,2-trifluoroacetic acid]	–	–	> 10000	< 500
Cc1cc(C(C)Nc2ccccc2C(=O)O)c2oc(-n3cccn3)cc(=O)c2c1 (single isomer, unassigned) [Example 58, 2-[1-(6-Methyl-4-oxo-2-pyrazol-1-yl-chromen-8-yl)ethylamino]benzoic acid, Isomer 2,2,2,2-trifluoroacetic acid]	–	–	5000 to 10000	< 500
Cc1cc(C(C)Nc2ccccc2C(=O)O)c2oc(-n3ccnc3)cc(=O)c2c1 (single isomer, unassigned) [Example 59, 2-[1-(2-Imidazol-1-yl-6-methyl-4-oxo-chromen-8-yl)ethylamino]benzoic acid, Isomer 2,2,2,2-trifluoroacetic acid]	1000 to 5000	< 500	–	–
Cc1c(-c2ccccn2)oc2c(C(C)Nc3ccccc3C(=O)O)cc(F)cc2c1=O (single isomer, unassigned) [Example 68, 2-[1-[6-Fluoro-3-methyl-4-oxo-2-(2-pyridyl)chromen-8-yl]ethylamino]benzoic acid, Isomer 1,2,2,2-trifluoroacetic acid]	–	–	5000 to 10000	< 500
Cc1cc(C(C)Nc2ccccc2C(=O)O)c2oc(-c3cnn(-c4ccc(C(F)(F)F)cc4)c3)cc(=O)c2c1 (single isomer, unassigned) [Example 87, 2-[1-[6-Methyl-4-oxo-2-[1-[4-(trifluoromethyl)phenyl]pyrazol-4-yl]chromen-8-yl]ethylamino]benzoic acid, Isomer 2,2,2,2-trifluoroacetic acid]	–	–	5000 to 10000	< 500
Cc1cc(C(C)Nc2ccccc2C(=O)O)c2oc(-c3cnn(-c4ccc5c(c4)OC(F)(F)O5)c3)cc(=O)c2c1 (single isomer, unassigned) [Example 91, 2-[1-[2-[1-(2,2-Difluoro-1,3-benzodioxol-5-yl)pyrazol-4-yl]-6-methyl-4-oxo-chromen-8-yl]ethylamino]benzoic acid, Isomer 2,2,2,2-trifluoroacetic acid]	–	–	> 10000	500 to 1000

The next lines start with the values.

IC50 ([1]; PIP2diC8 lipid substrate) [nM]	IC50 ([2]; PIP2diC8 lipid substrate) [nM]	IC50 ([1]; Soy PI lipid substrate) [nM]	IC50 ([2]; Soy PI lipid substrate) [nM]	SMILES
–	–	5000 to 10000	500 to 1000	COc1ccnc(-c2cc(=O)c3cc(C)cc(C(C)Nc4ccccc4C(=O)O)c3o2)c1 (single isomer, unassigned) [Example 43, 2-[1-[2-(4-Methoxy-2-pyridyl)-6-methyl-4-oxo-chromen-8-yl]ethylamino]benzoic acid, Isomer 2,2,2,2-trifluoroacetic acid]
–	–	1000 to 5000	< 500	Cc1cc(C(C)Nc2ccccc2C(=O)O)c2oc(-c3cn[nH]c3)cc(=O)c2c1 (single isomer, unassigned) [Example 51, 2-[1-[6-Methyl-4-oxo-2-(1H-pyrazol-4-yl)chromen-8-yl]ethylamino]benzoic acid, Isomer 2,2,2,2-trifluoroacetic acid]
–	–	1000 to 5000	< 500	COc1cccc(-n2cc(-c3cc(=O)c4cc(C)cc(C(C)Nc5ccccc5C(=O)O)c4o3)cn2)c1 (single isomer, unassigned) [Example 53, 2-[1-[2-[1-(3-Methoxyphenyl)pyrazol-4-yl]-6-methyl-4-oxo-chromen-8-yl]ethylamino]benzoic acid, Isomer 2,2,2,2-trifluoroacetic acid]
–	–	1000 to 5000	< 500	Cc1cc(C(C)Nc2ccccc2C(=O)O)c2oc(-c3cnn(-c4cccc(C#N)c4)c3)cc(=O)c2c1 (single isomer, unassigned) [Example 54, 2-[1-[2-[1-(3-Cyanophenyl)pyrazol-4-yl]-6-methyl-4-oxo-chromen-8-yl]ethylamino]benzoic acid, Isomer 2,2,2,2-trifluoroacetic acid]
–	–	1000 to 5000	< 500	Cc1cc(C(C)Nc2ccccc2C(=O)O)c2oc(-c3cnn(-c4cccnc4)c3)c(C)c(=O)c2c1 (single isomer, unassigned) [Example 63, 2-[1-[3,6-Dimethyl-4-oxo-2-[1-(3-pyridyl)pyrazol-4-yl]chromen-8-yl]ethylamino]benzoic acid, Isomer 1,2,2,2-trifluoroacetic acid]
–	–	1000 to 5000	< 500	Cc1cc(C(C)Nc2ccccc2C(=O)O)c2oc(-c3cnn(-c4ccc(C#N)cc4)c3)cc(=O)c2c1 (single isomer, unassigned) [Example 64, 2-[1-2-[1-(4-Cyanophenyl)pyrazol-4-yl]-6-methyl-4-oxo-chromen-8-yl]ethylamino]benzoic acid, Isomer 2,2,2,2-trifluoroacetic acid]
–	–	500 to 1000	< 500	COc1cccc(-n2cc(-c3oc4c(C(C)Nc5ccccc5C(=O)O)cc(C)cc4c(=O)c3C)cn2)c1 (single isomer, unassigned) [Example 66, 2-[1-2-[1-(3-Methoxyphenyl)pyrazol-4-yl]-3,6-dimethyl-4-oxo-chromen-8-yl]ethylamino]benzoic acid, Isomer 1,2,2,2-trifluoroacetic acid]
–	–	1000 to 5000	< 500	Cc1cc(C(C)Nc2ccccc2C(=O)O)c2oc(-c3ccccn3)c(C(F)(F)F)c(=O)c2c1 (single isomer, unassigned) [Example 67, 2-[1-[6-Methyl-4-oxo-2-(2-pyridyl)-3-(trifluoromethyl)chromen-8-yl]ethylamino]benzoic acid, Isomer 1,2,2,2-trifluoroacetic acid]
–	–	500 to 1000	< 500	COc1ccc(-n2cc(-c3oc4c(C(C)Nc5ccccc5C(=O)O)cc(C)cc4c(=O)c3C)cn2)cc1 (single isomer, unassigned) [Example 69, 2-[1-[2-[1-(4-Methoxyphenyl)pyrazol-4-yl]-3,6-dimethyl-4-oxo-chromen-8-yl]ethylamino]benzoic acid, Isomer 1,2,2,2-trifluoroacetic acid]
–	–	500 to 1000	< 500	Cc1cc(C(C)Nc2ccccc2C(=O)O)c2oc(-c3cccc(C(F)F)n3)c(C)c(=O)c2c1 (single isomer, unassigned) [Example 77, 2-[1-[2-[6-(Difluoromethyl)-2-pyridyl]-3,6-dimethyl-4-oxo-chromen-8-yl]ethylamino]benzoic acid, Isomer 1,2,2,2-trifluoroacetic acid]
–	–	1000 to 5000	< 500	Cc1cc(C(C)Nc2ccccc2C(=O)O)c2oc(-c3cnn(-c4ccc(S(C)(=O)=O)cc4)c3)cc(=O)c2c1 (single isomer, unassigned) [Example 88, 2-[1-[6-Methyl-2-[1-(4-methylsulfonylphenyl)pyrazol-4-yl]-4-oxo-chromen-8-yl]ethylamino]benzoic acid, Isomer 2,2,2,2-trifluoroacetic acid]
